Results from US8030354B2, “Substituted biphenyl GPR40 modulators” (Amgen Inc., priority 2007, dated 2011).

How the values were obtained:
[1] = target: T1, GPR40 (Homo sapiens, UniProt O14842); experiment: Cell-based aequorin assay (CHO cells stably expressing GPR40 and aequorin); design: expressed in transfected cells; host or cells: CHO cells stably transfected with GPR40 and aequorin; settings: activation of human GPR40, CHO cells, 0.01% HSA
Summary of the method: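 CHO cells stably co-expressing GPR40 and aequorin, loaded with coelenterazine (1 ug/mL, 2 h, room temperature) in H/HBSS with 20 mM Hepes and 0.01% fatty acid-free HSA. Serially diluted compounds added; luminescence recorded over 20 s. EC50 from dose-response of maximum relative light units.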

[2] = target: T1, GPR40; experiment: Inositol phosphate accumulation assay (A9_GPR40 cells); format: cell-based; design: expressed in transfected cells; host or cells: CHO cells stably transfected with GPR40 and aequorin; settings: inositol phosphate assay, A9_GPR40 cells, 1 hour; read-out: IP3 EC50
Summary of the method: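 [^3H] inositol phosphate accumulation was measured by SPA after 1 h compound exposure at 37° C in HBSS/10 mM LiCl containing HSA, ending with a 20 mM formic acid quench. The GPR40-transfected A9 cells had first been labelled overnight (16 h) with 1 μCi/mL ^3H-inositol.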

T1 sequence (O14842 whole entry): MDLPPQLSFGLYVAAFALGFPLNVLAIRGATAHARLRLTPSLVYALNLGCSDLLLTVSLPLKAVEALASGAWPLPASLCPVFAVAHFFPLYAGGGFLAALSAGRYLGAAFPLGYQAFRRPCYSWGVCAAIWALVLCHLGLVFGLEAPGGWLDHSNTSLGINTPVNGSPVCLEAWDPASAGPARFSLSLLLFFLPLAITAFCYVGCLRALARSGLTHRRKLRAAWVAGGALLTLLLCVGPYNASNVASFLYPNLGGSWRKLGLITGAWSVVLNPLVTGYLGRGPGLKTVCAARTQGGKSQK

| SMILES | EC50 [1] [nM] | EC50 [2] [nM] |
| --- | --- | --- |
| COCCO[C@H](c1cc(COc2cccc([C@@H](CC(=O)O)CC3CC3)c2)ccc1-c1cc(OC)ccc1F)C(C)(C)C (single isomer, unassigned) [Example 69.23] | 10 to 100 | < 10 |
| COc1ccc(F)c(-c2ccc(COc3cccc([C@@H](CC(=O)O)CC4CC4)c3)cc2SC(C)C)c1 (single isomer, unassigned) [Example 69.24, (R)-4-Cyclopropyl-3-[3-(2′-fluoro-2-isopropylsulfanyl-5′-methoxy-biphenyl-4-ylmethoxy)-phenyl]-butyric acid or (S)-4-cyclopropyl-3-[3-(2′-fluoro-2-isopropylsulfanyl-5′-methoxy-biphenyl-4-ylmethoxy)-phenyl]-butyric acid] | 100 to 1000 | 10 to 100 |
| COc1ccc(F)c(-c2ccc(COc3cccc(C(CC(=O)O)CC4CC4)c3)cc2N2CCCCC2)c1 (single isomer, unassigned) [Example 69.28, (3R)-4-Cyclopropyl-3-(3-(((2′-fluoro-5′-(methyloxy)-2-(1-piperidinyl)-1,1′-biphenyl-4-yl)methyl)oxy)phenyl)butanoic acid or (3S)-4-cyclopropyl-3-(3-(((2′-fluoro-5′-(methyloxy)-2-(1-piperidinyl)-1,1′-biphenyl-4-yl)methyl)oxy)phenyl)butanoic acid] | 100 to 1000 | 10 to 100 |
| COc1ccc(F)c(-c2ccc(COc3cccc(C(CC(=O)O)CC4CC4)c3)cc2N2CCCCCC2)c1 (single isomer, unassigned) [Example 69.29, (3R)-3-(3-(((2-(1-Azepanyl)-2′-fluoro-5′-(methyloxy)-1,1′-biphenyl-4-yl)methyl)oxy)phenyl)-4-cyclopropylbutanoic acid or (3S)-3-(3-(((2-(1-azepanyl)-2′-fluoro-5′-(methyloxy)-1,1′-biphenyl-4-yl)methyl)oxy)phenyl)-4-cyclopropylbutanoic acid] | 100 to 1000 | 100 to 1000 |
| COc1ccc(F)c(-c2cc(F)c(COc3cccc(C(CC(=O)O)CC4CC4)c3)cc2C2=CCCC2(C)C)c1 (single isomer, unassigned) [Example 69.30, (3R)-4-cyclopropyl-3-(3-(((2-(5,5-dimethyl-1-cyclopenten-1-yl)-2′,5-difluoro-5′-(methyloxy)-1,1′-biphenyl-4-yl)methyl)oxy)phenyl)butanoic acid or (3S)-4-cyclopropyl-3-(3-(((2-(5,5-dimethyl-1-cyclopenten-1-yl)-2′,5-difluoro-5′-(methyloxy)-1,1′-biphenyl-4-yl)methyl)oxy)phenyl)butanoic acid] | 100 to 1000 | < 10 |
| COc1ccc(F)c(-c2ccc(COc3cccc([C@@H](CC(=O)O)CC4CC4)c3)cc2C2=CC(C)(C)CC(C)(C)C2)c1 (single isomer, unassigned) [Example 69.31, (3R)-4-Cyclopropyl-3-(3-(((2′-fluoro-5′-(methyloxy)-2-(3,3,5,5-tetramethyl-1-cyclohexen-1-yl)-1,1′-biphenyl-4-yl)methyl)oxy)phenyl)butanoic acid or (3S)-4-cyclopropyl-3-(3-(((2′-fluoro-5′-(methyloxy)-2-(3,3,5,5-tetramethyl-1-cyclohexen-1-yl)-1,1′-biphenyl-4-yl)methyl)oxy)phenyl)butanoic acid] | 100 to 1000 | 10 to 100 |
| COc1ccc(F)c(-c2ccc(COc3cccc([C@@H](CC(=O)O)CC4CC4)c3)cc2C2CC(C)(C)CC(C)(C)C2)c1 (single isomer, unassigned) [Example 69.32, (3R)-4-Cyclopropyl-3-(3-(((2′-fluoro-5′-(methyloxy)-2-(3,3,5,5-tetramethylcyclohexyl)-1,1′-biphenyl-4-yl)methyl)oxy)phenyl)butanoic acid or (3S)-4-cyclopropyl-3-(3-(((2′-fluoro-5′-(methyloxy)-2-(3,3,5,5-tetramethylcyclohexyl)-1,1′-biphenyl-4-yl)methyl)oxy)phenyl)butanoic acid] | 100 to 1000 | 10 to 100 |
| COc1ccc(F)c(-c2ccc(COc3cccc([C@@H](CC(=O)O)CC4CC4)c3)cc2C2CCCC2C)c1 (single isomer, unassigned) [Example 69.33, (3R)-4-Cyclopropyl-3-(3-(((2′-fluoro-2-(2-methylcyclopentyl)-5′-(methyloxy)-1,1′-biphenyl-4-yl)methyl)oxy)phenyl)butanoic acid or (3S)-4-cyclopropyl-3-(3-(((2′-fluoro-2-(2-methylcyclopentyl)-5′-(methyloxy)-1,1′-biphenyl-4-yl)methyl)oxy)phenyl)butanoic acid] | 100 to 1000 | 10 to 100 |
| COc1ccc(F)c(-c2cc(F)c(COc3cccc(C(CC(=O)O)CC4CC4)c3)cc2C2CCCC2(C)C)c1 (single isomer, unassigned) [Example 69.34] | 100 to 1000 | < 10 |
| COc1ccc(F)c(-c2ccc(COc3cccc(C(CC(=O)O)CC4CC4)c3)cc2C(OC)C(C)(C)C)c1 (single isomer, unassigned) [Example 69.35] | 10 to 100 | < 10 |
| COc1ccc(F)c(-c2ccc(COc3cccc(C(CC(=O)O)CC4CC4)c3)cc2C2CCCCC2(C)C)c1 (single isomer, unassigned) [Example 69.36] | 100 to 1000 | < 10 |
| C=CC(C)(C)C(OC)c1cc(COc2cccc(C(CC(=O)O)CC3CC3)c2)ccc1-c1cc(OC)ccc1F (single isomer, unassigned) [Example 69.38] | 100 to 1000 | < 10 |
| CCC(C)(C)C(OC)c1cc(COc2cccc(C(CC(=O)O)CC3CC3)c2)ccc1-c1cc(OC)ccc1F (single isomer, unassigned) [Example 69.42] | 100 to 1000 | < 10 |
| COc1ccc(F)c(-c2ccc(COc3cccc([C@@H](CC(=O)O)CC4CC4)c3)cc2[C@H]2OCCC2(C)C)c1 (single isomer, unassigned) [Example 69.44] | 100 to 1000 | 10 to 100 |
| COc1cccc(-c2ccc(COc3cccc(C(CC(=O)O)C4CCC4)c3)cc2C(C)(C)C)c1 (single isomer, unassigned) [Example 70.1, (3S)-3-Cyclobutyl-3-(3-(((2-(1,1-dimethylethyl)-3′-(methyloxy)-1,1′-biphenyl-4-yl)methyl)oxy)phenyl)propanoic acid or (3R)-3-cyclobutyl-3-(3-(((2-(1,1-dimethylethyl)-3′-(methyloxy)-1,1′-biphenyl-4-yl)methyl)oxy)phenyl)propanoic acid] | 100 to 1000 | 10 to 100 |
| COc1ccc(F)c(-c2ccc(COc3cccc(C(CC(=O)O)C4CCC4)c3)cc2C2=CCCC2(C)C)c1 (single isomer, unassigned) [Example 70.2, (3S)-3-Cyclobutyl-3-(3-(((2-(5,5-dimethyl-1-cyclopenten-1-yl)-2′-fluoro-5′-(methyloxy)-1,1′-biphenyl-4-yl)methyl)oxy)phenyl)propanoic acid or (3R)-3-cyclobutyl-3-(3-(((2-(5,5-dimethyl-1-cyclopenten-1-yl)-2′-fluoro-5′-(methyloxy)-1,1′-biphenyl-4-yl)methyl)oxy)phenyl)propanoic acid] | 100 to 1000 | 10 to 100 |
| COc1ccc(F)c(-c2ccc(COc3cccc(C(CC(=O)O)C4CCC4)c3)cc2C(C)(C)C)c1 (single isomer, unassigned) [Example 70.3, (3S)-3-Cyclobutyl-3-(3-(((2-(1,1-dimethylethyl)-2′-fluoro-5′-(methyloxy)-1,1′-biphenyl-4-yl)methyl)oxy)phenyl)propanoic acid or (3R)-3-cyclobutyl-3-(3-(((2-(1,1-dimethylethyl)-2′-fluoro-5′-(methyloxy)-1,1′-biphenyl-4-yl)methyl)oxy)phenyl)propanoic acid] | 100 to 1000 | 10 to 100 |
| CCCCOc1cc(COc2cccc(C(CC(=O)O)C3CCC3)c2)ccc1-c1cc(OC)ccc1F (single isomer, unassigned) [Example 70.4, (3S)-3-(3-(((2-(Butyloxy)-2′-fluoro-5′-(methyloxy)-1,1′-biphenyl-4-yl)methyl)oxy)phenyl)-3-cyclobutylpropanoic acid or (3R)-3-(3-(((2-(butyloxy)-2′-fluoro-5′-(methyloxy)-1,1′-biphenyl-4-yl)methyl)oxy)phenyl)-3-cyclobutylpropanoic acid] | 100 to 1000 | 100 to 1000 |
| CCCCOc1cc(COc2cccc(C(CCCC)CC(=O)O)c2)ccc1-c1cc(OC)ccc1F (single isomer, unassigned) [Example 71.2, (3R)-3-(3-(((2-(Butyloxy)-2′-fluoro-5′-(methyloxy)-1,1′-biphenyl-4-yl)methyl)oxy)phenyl)heptanoic acid or (3S)-3-(3-(((2-(butyloxy)-2′-fluoro-5′-(methyloxy)-1,1′-biphenyl-4-yl)methyl)oxy)phenyl)heptanoic acid] | 100 to 1000 | 100 to 1000 |
| CCCCC(CC(=O)O)c1cccc(OCc2ccc(-c3cc(OC)ccc3F)c(C3=CCCC3(C)C)c2)c1 (single isomer, unassigned) [Example 71.3, (3R)-3-(3-(((2-(5,5-Dimethyl-1-cyclopenten-1-yl)-2′-fluoro-5′-(methyloxy)-1,1′-biphenyl-4-yl)methyl)oxy)phenyl)heptanoic acid or (3S)-3-(3-(((2-(5,5-dimethyl-1-cyclopenten-1-yl)-2′-fluoro-5′-(methyloxy)-1,1′-biphenyl-4-yl)methyl)oxy)phenyl)heptanoic acid] | 100 to 1000 | 10 to 100 |
